US20250276983A1, “COMPOUNDS AND METHODS FOR MODULATING HER2” (IAMBIC THERAPEUTICS, INC., priority 2022, published 2025)
Read-outs that look alike come from different tables or passages of the source.

Assays:
Assay type in all cases: cell-based
BaF3_HER2YVMA cells = test: Cell growth inhibition assay, BaF3_HER2YVMA; details: BaF3_HER2YVMA cells, 3 days treatment, CellTiterGlo 2.0, read-out: HER2-YVMA IC50 (nM), cell growth inhibition
BaF3_HER2WT cells = test: Cell growth inhibition assay, BaF3_HER2WT; details: 3 days treatment, CellTiterGlo 2.0, read-out: HER2 WT IC50 (nM), cell growth inhibition
BaF3_EGFRWT cells = test: Cell growth inhibition assay, BaF3_EGFRWT; details: 80 ng/mL recombinant human EGF, 3 days treatment, CellTiterGlo 2.0, read-out: EGFR WT IC50 (nM), cell growth inhibition

| IC50 (BaF3_HER2YVMA cells; 72 h) | IC50 (BaF3_HER2WT cells; 72 h) | IC50 (BaF3_EGFRWT cells; 72 h) | IC50 (BaF3_HER2YVMA cells) | IC50 (BaF3_HER2WT cells) | IC50 (BaF3_EGFRWT cells) | Structure (SMILES) |
| --- | --- | --- | --- | --- | --- | --- |
| < 200 nM | < 200 nM | 1500 to 5000 nM |  |  |  | CO[C@H]1CN(C/C=C/C(=O)N2CC(c3ccn4ncnc(Nc5ccc(Oc6ccc7c(c6)ncn7C)c(C)c5)c34)C2)C[C@H]1OC [Example 165, (E)-4-((3R,4S)-3,4-dimethoxypyrrolidin-1-yl)-1-(3-(4-((3-methyl-4-((1-methyl-1H-benzo[d]imidazol-5-yl)oxy)phenyl)amino)pyrrolo[2,1-f][1,2,4]triazin-5-yl)azetidin-1-yl)but-2-en-1-one] |
| < 200 nM | < 200 nM | 1500 to 5000 nM |  |  |  | CO[C@H]1CN(C/C=C/C(=O)N2CCC(c3ccn4ncnc(Nc5ccc(Oc6ccc7c(c6)ncn7C)c(C)c5)c34)CC2)C[C@H]1OC [Example 167, (E)-4-((3R,4S)-3,4-dimethoxypyrrolidin-1-yl)-1-(4-(4-((3-methyl-4-((1-methyl-1H-benzo[d]imidazol-5-yl)oxy)phenyl)amino)pyrrolo[2,1-f][1,2,4]triazin-5-yl)piperidin-1-yl)but-2-en-1-one] |
| < 200 nM | < 200 nM | 1500 to 5000 nM |  |  |  | CO[C@@H]1CN(C/C=C/C(=O)N2CCC(c3ccn4ncnc(Nc5ccc(Oc6ccc7c(c6)ncn7C)c(C)c5)c34)CC2)C[C@H]1OC [Example 168, (E)-4-((3R,4R)-3,4-dimethoxypyrrolidin-1-yl)-1-(4-(4-((3-methyl-4-((1-methyl-1H-benzo[d]imidazol-5-yl)oxy)phenyl)amino)pyrrolo[2,1-f][1,2,4]triazin-5-yl)piperidin-1-yl)but-2-en-1-one] |
|  |  |  | 1500 to 5000 nM | 500 to 1500 nM | 1500 to 5000 nM | C=CC(=O)N1CC2CCC1CC2c1ccn2ncnc(Nc3ccc(Oc4ccn5ncnc5c4)c(C)c3)c12 (single isomer, unassigned) [Examples 139 and 140, second eluting isomer, 1-(5-(4-((4-([1,2,4]triazolo[1,5-a]pyridin-7-yloxy)-3-methylphenyl)amino)pyrrolo[2,1-f][1,2,4]triazin-5-yl)-2-azabicyclo[2.2.2]octan-2-yl)prop-2-en-1-one] |
| 500 to 1500 nM | < 200 nM | 1500 to 5000 nM |  |  |  | C=CC(=O)NC1CCCN(c2ccn3ncnc(Nc4ccc(Oc5ccn6ncnc6c5)c(C)c4)c23)C1 (stereo not drawn) [Example 76, N-(1-(4-((4-([1,2,4]triazolo[1,5-a]pyridin-7-yloxy)-3-methylphenyl)amino)pyrrolo[2,1-f][1,2,4]triazin-5-yl)piperidin-3-yl)acrylamide] |
| 200 to 500 nM | < 200 nM | 1500 to 5000 nM |  |  |  | Cc1cc(Nc2ncnn3ccc(C4CN(C(=O)/C=C/CC(C)C)C4)c23)ccc1Oc1ccn2ncnc2c1 [Example 43, (E)-1-(3-(4-((4-([1,2,4]triazolo[1,5-a]pyridin-7-yloxy)-3-methylphenyl)amino)pyrrolo[2,1-f][1,2,4]triazin-5-yl)azetidin-1-yl)-5-methylhex-2-en-1-one] |
| < 200 nM | < 200 nM | 1500 to 5000 nM |  |  |  | Cc1cc(Nc2ncnn3ccc(C4CN(C(=O)/C=C/CN5CC(F)C5)C4)c23)ccc1Oc1ccn2ncnc2c1 [Example 38, (E)-1-(3-(4-((4-([1,2,4]triazolo[1,5-a]pyridin-7-yloxy)-3-methylphenyl)amino)pyrrolo[2,1-f][1,2,4]triazin-5-yl)azetidin-1-yl)-4-(3-fluoroazetidin-1-yl)but-2-en-1-one] |
| 200 to 500 nM | < 200 nM | 1500 to 5000 nM |  |  |  | C#CCN(C)C/C=C/C(=O)N1CCC(c2ccn3ncnc(Nc4ccc(Oc5ccn6ncnc6c5)c(C)c4)c23)CC1 [Example 59, (E)-1-(4-(4-((4-([1,2,4]triazolo[1,5-a]pyridin-7-yloxy)-3-methylphenyl)amino)pyrrolo[2,1-f][1,2,4]triazin-5-yl)piperidin-1-yl)-4-(methyl(prop-2-yn-1-yl)amino)but-2-en-1-one] |
| < 200 nM | < 200 nM | 1500 to 5000 nM |  |  |  | CNC/C=C/C(=O)N1CC(c2ccn3ncnc(Nc4ccc(Oc5ccn6ncnc6c5)c(C)c4)c23)C1 [Example 151, (E)-1-(3-(4-((4-([1,2,4]triazolo[1,5-a]pyridin-7-yloxy)-3-methylphenyl)amino)pyrrolo[2,1-f][1,2,4]triazin-5-yl)azetidin-1-yl)-4-(methylamino)but-2-en-1-one] |
| 500 to 1500 nM | < 200 nM | 1500 to 5000 nM |  |  |  | C=CC(=O)N(C)C1CCN(c2ccn3ncnc(Nc4ccc(Oc5ccn6ncnc6c5)c(C)c4)c23)CC1 [Example 74, N-(1-(4-((4-([1,2,4]triazolo[1,5-a]pyridin-7-yloxy)-3-methylphenyl)amino)pyrrolo[2,1-f][1,2,4]triazin-5-yl)piperidin-4-yl)-N-methylacrylamide] |
|  |  |  | 500 to 1500 nM | 200 to 500 nM | 1500 to 5000 nM | Cc1cc(Nc2ncnn3ccc(C4CCCN(C(=O)C(F)Cl)CC4)c23)ccc1Oc1ccn2ncnc2c1 (single isomer, unassigned) [Examples 145, 146, 147 and 148, third eluting isomer, 1-(4-(4-((4-([1,2,4]triazolo[1,5-a]pyridin-7-yloxy)-3-methylphenyl)amino)pyrrolo[2,1-f][1,2,4]triazin-5-yl)azepan-1-yl)-2-chloro-2-fluoroethan-1-one] |
| 500 to 1500 nM | < 200 nM | 1500 to 5000 nM |  |  |  | Cc1cc(Nc2ncnn3ccc(N4CCC(N(C)C(=O)/C=C/CN(C)C)CC4)c23)ccc1Oc1ccn2ncnc2c1 [Example 73, (E)-N-(1-(4-((4-([1,2,4]triazolo[1,5-a]pyridin-7-yloxy)-3-methylphenyl)amino)pyrrolo[2,1-f][1,2,4]triazin-5-yl)piperidin-4-yl)-4-(dimethylamino)-N-methylbut-2-enamide] |
| < 200 nM | < 200 nM | 500 to 1500 nM |  |  |  | C=CC(=O)N1CC(c2ccn3ncnc(Nc4ccc(Oc5ccn6ncnc6c5)c(C)c4)c23)C1 [Example 3, 1-(3-(4-((4-([1,2,4]triazolo[1,5-a]pyridin-7-yloxy)-3-methylphenyl)amino)pyrrolo[2,1-f][1,2,4]triazin-5-yl)azetidin-1-yl)prop-2-en-1-one] |
| 1500 to 5000 nM | 200 to 500 nM | 1500 to 5000 nM |  |  |  | Cc1cc(Nc2ncnn3ccc(N4CC(NC(=O)/C=C/CN5CCOCC5)C4)c23)ccc1Oc1ccn2ncnc2c1 [Example 81, (E)-N-(1-(4-((4-([1,2,4]triazolo[1,5-a]pyridin-7-yloxy)-3-methylphenyl)amino)pyrrolo[2,1-f][1,2,4]triazin-5-yl)azetidin-3-yl)-4-morpholinobut-2-enamide] |
| < 200 nM | < 200 nM | 1500 to 5000 nM |  |  |  | CO[C@@H]1CN(C/C=C/C(=O)N2CC(c3ccn4ncnc(Nc5ccc(Oc6ccc7c(c6)ncn7C)c(C)c5)c34)C2)C[C@H]1OC [Example 166, (E)-4-((3R,4R)-3,4-dimethoxypyrrolidin-1-yl)-1-(3-(4-((3-methyl-4-((1-methyl-1H-benzo[d]imidazol-5-yl)oxy)phenyl)amino)pyrrolo[2,1-f][1,2,4]triazin-5-yl)azetidin-1-yl)but-2-en-1-one] |
| 500 to 1500 nM | 200 to 500 nM | 1500 to 5000 nM |  |  |  | COC1(c2ccn3ncnc(Nc4ccc(Oc5ccn6ncnc6c5)c(C)c4)c23)CCN(C(=O)/C=C/CN(C)C)CC1 [Example 52, (E)-1-(4-(4-((4-([1,2,4]triazolo[1,5-a]pyridin-7-yloxy)-3-methylphenyl)amino)pyrrolo[2,1-f][1,2,4]triazin-5-yl)-4-methoxypiperidin-1-yl)-4-(dimethylamino)but-2-en-1-one] |
|  | < 200 nM | 1500 to 5000 nM |  |  |  | COC1CN(C/C=C/C(=O)N2CC(c3ccn4ncnc(Nc5ccc(Oc6ccn7ncnc7c6)c(C)c5)c34)C2)C1 [Example 39, (E)-1-(3-(4-((4-([1,2,4]triazolo[1,5-a]pyridin-7-yloxy)-3-methylphenyl)amino)pyrrolo[2,1-f][1,2,4]triazin-5-yl)azetidin-1-yl)-4-(3-methoxyazetidin-1-yl)but-2-en-1-one] |
|  |  |  | < 200 nM |  | 1500 to 5000 nM | C=CC(=O)N1CCCC(c2ccn3ncnc(Nc4ccc(Oc5ccn6ncnc6c5)c(C)c4)c23)CC1 (single isomer, unassigned) [Examples 111 and 112, second eluting isomer, 1-(4-(4-((4-([1,2,4]triazolo[1,5-a]pyridin-7-yloxy)-3-methylphenyl)amino)pyrrolo-[2,1-f][1,2,4]triazin-5-yl)azepan-1-yl)prop-2-en-1-one] |
|  |  |  |  |  | 1500 to 5000 nM | Cc1cc(Nc2ncnn3ccc(C4CCCN(C(=O)/C=C/CN(C)C)CC4)c23)ccc1Oc1ccn2ncnc2c1 (single isomer, unassigned) [Examples 109 and 110, second eluting isomer, (E)-1-(4-(4-((4-([1,2,4]triazolo[1,5-a]pyridin-7-yloxy)-3-methylphenyl)amino)pyrrolo[2,1-f][1,2,4]triazin-5-yl)azepan-1-yl)-4-(dimethylamino)but-2-en-1-one] |
|  |  | 1500 to 5000 nM |  |  |  | Cc1cc(Nc2ncnn3ccc(C4CCN(C(=O)/C=C/CN(C)C)CC4)c23)ccc1Oc1ccn2ncnc2c1 [Example 21, (E)-1-(4-(4-((4-([1,2,4]triazolo[1,5-a]pyridin-7-yloxy)-3-methylphenyl)amino)pyrrolo[2,1-f][1,2,4]triazin-5-yl)piperidin-1-yl)-4-(dimethylamino)but-2-en-1-one] |

| Structure (SMILES) | IC50 (BaF3_HER2YVMA cells; 72 h) | IC50 (BaF3_HER2WT cells; 72 h) | IC50 (BaF3_EGFRWT cells; 72 h) | IC50 (BaF3_HER2YVMA cells) | IC50 (BaF3_HER2WT cells) | IC50 (BaF3_EGFRWT cells) |
| --- | --- | --- | --- | --- | --- | --- |
| Cc1cc(Nc2ncnn3ccc(C4CCN(C(=O)C(F)Cl)CC4)c23)ccc1Oc1ccn2ncnc2c1 (stereo not drawn) [Example 35, 1-(4-(4-((4-([1,2,4]triazolo[1,5-a]pyridin-7-yloxy)-3-methylphenyl)amino)pyrrolo[2,1-f][1,2,4]triazin-5-yl)piperidin-1-yl)-2-chloro-2-fluoroethan-1-one acetate] | < 200 nM | < 200 nM | 1500 to 5000 nM |  |  |  |
